ChEMBL document CHEMBL1201862, “PubChem BioAssay data set” (2004)
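Where inhibition never reached the appropriate level, the endpoint shown equals the highest concentration tested. Otherwise, values were interpolated linearly from a five-concentration, 48-hour dose response in 96-well plates. GI50 = concentration required for 50% inhibition of growth.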 Calls of active or inactive are those of the source. Cut-off read from the data, not from the text of the source: active = GI50 up to about 1.1 µM and inactive = higher.

What was measured:
Experiment in all cases: NCI anticancer screen, dose series, 48 h
[1] = system: DU-145
[2] = system: MDA-MB-435
[3] = system: T47D
[4] = system: MDA-MB-231
[5] = system: Hs-578T
[6] = system: BT-549
[7] = system: XF498
[8] = system: RXF 631
[9] = system: HOP-18

Measured: GI50

CN(CCO)Cc1ncccc1O
inactive: [1] > 100 µM | [2] > 100 µM | [3] > 100 µM | [4] > 100 µM | [5] > 100 µM | [6] > 100 µM

CON(C)C(C#N)=C(C#N)C#N
inactive: [1] > 10 µM | [2] > 10 µM | [3] > 10 µM | [4] > 10 µM | [5] > 10 µM

O=C(Nn1c(-c2ccccc2)nc2ccccc2c1=O)c1ccc(CS)cc1
inactive: [1] 39.4 µM | [2] 41.8 µM | [3] > 100 µM | [4] 37 µM | [5] 35.6 µM | [6] 22.4 µM

C=CCCN1CCc2c([nH]c3ccccc23)C1C(=O)O (stereo unspecified)
inactive: [7] > 100 µM | [8] > 100 µM

O=c1nc(NC(c2ccccc2)(c2ccccc2)c2ccccc2)ccn1CCCl
inactive: [7] 14.1 µM | [8] 27.3 µM | [9] 25.5 µM

COc1cccc(OCC(=N/NC(=O)c2ccncc2)/N=C/c2ccncc2)c1
inactive: [1] > 100 µM | [2] > 100 µM | [3] > 100 µM | [4] > 100 µM | [5] > 100 µM | [6] > 100 µM

CC(=O)NNc1nc(C)c(C(=O)NNC(=O)C(=O)Nc2ccc([N+](=O)[O-])cc2C#N)s1
inactive: [7] > 100 µM

CC1NC(=O)C(C)C(c2ccccc2)N(N=O)C1c1ccccc1 (stereo unspecified)
inactive: [7] 29.9 µM | [9] 96.8 µM

CC1=CC(C)C(C)N(CC2=NCCN2)c2ccccc21 (stereo unspecified)
inactive: [1] > 69.5 µM | [2] 46.5 µM | [3] > 57.8 µM | [4] 32.9 µM | [5] > 74.3 µM | [6] > 100 µM

CC(=O)OCc1c(C)c2ccccc2n1C(C)=O
inactive: [7] 26.5 µM | [8] 25.2 µM | [9] 27.7 µM

Cn1cc(-c2csc(-c3cn(C)c4ccccc34)n2)c2ccccc21
inactive: [1] 42.9 µM | [2] 26.4 µM | [3] 2.81 µM | [4] 17.3 µM | [5] > 100 µM | [6] 56.4 µM

Cn1c2ccc([N+](=O)[O-])cc2c(=O)n1Cc1ccccc1F
inactive: [1] 51.2 µM | [2] 74.3 µM | [3] 19.4 µM | [4] 34.2 µM | [5] 25.8 µM | [6] > 100 µM

ClCc1ccc2ccc3ccc(CCl)nc3c2n1
inactive: [7] 1.65 µM | [9] 2.65 µM

COc1ccc(CCn2cncn2)cc1
inactive: [8] > 100 µM

CC1=C2C3OC(=O)C(C)C3CCC2(C)C=C/C1=N\c1ccccc1 (stereo unspecified)
inactive: [9] > 57.1 µM

Cc1cc(C(=O)NCCN(C)C)c2nc3ccccc3cc2c1
inactive: [7] 1.42 µM | [9] 1.74 µM

CC1CC/C(=C\c2ccc(N(C)C)cc2)C2=C1C(c1ccc(N(C)C)cc1)NC(=S)N2 (stereo unspecified)
inactive: [1] > 100 µM | [2] > 100 µM | [3] > 100 µM | [4] > 100 µM | [5] > 100 µM | [6] > 100 µM

CN(C)C(=O)NCCN1CCCCCc2ccccc21
inactive: [1] > 100 µM | [2] 53 µM | [3] > 100 µM | [4] 57.1 µM | [5] > 100 µM

CCN(CC)c1cccc2c1/C(=N/O)CCCC2
inactive: [7] > 100 µM | [9] > 100 µM

CC[C@H](O)[C@H](C)C=C1SCCCS1
inactive: [1] > 100 µM | [2] > 100 µM | [4] > 100 µM | [5] > 100 µM | [6] > 100 µM

CCOC(=O)c1cc(Br)c(-c2cc(C)no2)[nH]1
inactive: [1] 20.5 µM | [2] 14.3 µM | [3] 28.1 µM | [4] 29.2 µM | [6] 31.2 µM

O=C1C(Cl)N(c2ccccc2[N+](=O)[O-])C1c1c[nH]c2ccccc12 (stereo unspecified)
inactive: [7] > 100 µM

O=C1C=CC(=O)c2c(Cl)ccc(O)c21
inactive: [7] 17.5 µM | [9] 19.1 µM

COc1cc2c(ccc3c4cc(OC)c(OC)cc4c[n+](C)c23)cc1O [FAGARONINE]
inactive: [7] 4.54 µM | [9] > 75 µM
